Laboratory results published in patent publication US20240122939A1, “THERAPIES FOR THE TREATMENT OF DISEASES AND DISORDERS ASSOCIATED WITH ABNORMAL EXPRESSION OF CDKL5 GENE” (THE REGENTS OF THE UNIVERSITY OF CALIFORNIA, priority 2021, published 2024).

Assays:
CDD spheroids = assay: HT cell viability (CellTiter Glo 3D Cell Viability Assay); format: cell-based, human; settings: 1 μM, 3 weeks treatment, CDD spheroids at 6 weeks of differentiation
Procedure: HT cell viability. To determine any cytotoxic effect of the drug treatment on the neural culture, the CellTiter Glo 3D Cell Viability Assay (Promega, Madison, WI, USA) was performed according to the manufacturer's instructions. Briefly, following the intracellular calcium oscillation recording, the spheroids were extensively washed with PBS for removal of the calcium dye. Next, cells were incubated with CellTiter Glo Reagent for 30 min at room temperature and the number of viable cells was estimated based on the amount of ATP present in the culture. The luminescent signal was captured using a PHERAstar FSX Microplate Reader (BMG Labtech, Ortenberg, Germany).
Next, a unique library of 1112 neuronal signaling compounds was screened by chronically treating 3-week-old CDD spheroids in triplicate at 1 μM for 3 weeks (FIG. 5D; FIG. 10). The calcium peaks' baseline features were determined solely in the presence of each vehicle (DMSO or water) to avoid any confounding effect on the oscillatory activity (FIG. 5E and FIG. 10A-D). Similarly, the result from each compound was normalized against its vehicle control (DMSO or water). To detect potential toxic effects of specific drugs, spheroid size and cell viability were monitored (FIG. 5F-G).

[1] = test system: CDD spheroids (cortical neurons and astrocytes derived from human iPSCs); assay: HT calcium oscillation assay in CDD spheroids (high throughput screening, Scalar Perturbation and Parameter Recovery analysis); format: cell-based; settings: for SP ranking (Scalar Perturbation): smaller SP = closer to control; for EC50: Homo sapiens, iPSC, six concentrations 0.0003 to 1 μM, nonlinear regression fit, n=4 spheroids per concentration, read-out: EC50 (dose-response of Parameter Recovery percentage)
Description: CDD High Throughput Screening (HTS) platform development. An HTS platform for CDD was developed. Briefly, the HTS system relies on spheroids derived from human iPSCs that comprise a balanced culture of cortical neurons and astrocytes. These spheroids display quantifiable, robust and uniform spontaneous calcium oscillations which correlated with synchronous neuronal activity. The CDD HTS platform uses cells derived from CDD1 and Controll lines.
Chemical library and drug treatment. The compound library used in this study comprises a unique collection of 1112 compounds with biological activity used for neurologic research and associated assays; of which two-thirds are FDA-approved drugs (SelleckChem, Houston, TX, USA). Three-week-old CDD spheroids received chronic treatment three-times per week, during three weeks. All compounds were tested at 1 μM in three technical replicates; vehicle controls (DMSO or water) were included in multiple replicates. The dose-response assay comprehended six concentrations ranging from 0.0003 to 1 μM, in four technical replicates.
HT Calcium oscillation assay. To assess the intracellular calcium oscillations in CDD and control cortical spheroids, cells were incubated with the FLIPR Calcium 6 Kit (Molecular Devices LLC, San Jose, CA, USA). Briefly, cells were pre-loaded with Calcium 6 Dye for 2 h prior to the recording. The dye interacts with intracellular calcium and changes in fluorescence occur according to increased or decreased calcium concentration. The peaks observed correlate with synchronous neural activity in the spheroids. The kinetics of intracellular calcium oscillations was determined using the FLIPR Tetra High-Throughput Cellular Screening System (Molecular Devices LLC): the fluorescence intensity was set at 515-575 nm following excitation at 470-495 nm for 10 min at a frequency of 3 Hz; the exposure time per read was 0.4 s, the gain was set to 30, and the excitation intensity was set to 40%. The instrument temperature was kept at 37° C.
HT screening analysis. A multiparametric analysis of representative descriptors of the intracellular calcium oscillation was performed. The features used include: 1. Peak count; 2. Average (Avg) Peak Height (Amplitude); 3. Peak Height standard deviation (s.d.); 4. Avg Peak Width, 5. Peak Width s.d.; 6. Avg Peak Spacing; 7. Peak Spacing s.d.; 8. Avg Peak Rise Time; 9. Peak Rise Time s.d.; 10. Avg Peak Decay Time; 11. Peak Decay Time s.d.; 12. Class 1 Peak Count; 13. Class 2 Peak Cound; 14. Class 3 Peak Count; 15. Singular Peak Count; 16. Irregular Peak Count, and 17. Subpeak Count. For peak classification, Class 1 Peak display 100-66% of max peak height, while Class 2 and Class 3, 66-33% and 33-15%, respectively. To determine the Scalar Perturbation, the data was normalized by dividing raw parameters by the median values of controls from the same plate. Each parameter was standardized by z-score of normalized and log-transformed control values. Next, the Euclidean norm between selected parameters was calculated and averaged the Scalar Perturbation score among replicates. In the Parameter Recovery, max/min boundaries from vehicle Control were determined from corresponding plate. For each replicate, we summed the number of parameter found to be within the max/min boundaries of the Control. Next, for each replicate we divided the sum of the recovered parameter by the total number of parameters and established the percentage of parameters recovered to the Control boundaries and, averaged Parameter Recovery percentages between compound replicates.
Next, a unique library of 1112 neuronal signaling compounds was screened by chronically treating 3-week-old CDD spheroids in triplicate at 1 μM for 3 weeks (FIG. 5D; FIG. 10). The calcium peaks' baseline features were determined solely in the presence of each vehicle (DMSO or water) to avoid any confounding effect on the oscillatory activity (FIG. 5E and FIG. 10A-D). […]

CDD spheres = assay: Cellular migration after drug treatment (outward radial migration from plated spheres); format: cell-based, human; settings: 1 μM, spheres treated for 3 weeks, migration evaluated 8 days after plating
Procedure: Cellular migration. Three-week old spheres were treated for 3 additional weeks with 1 μM of selected compounds. Cellular migration was evaluated 8 days after spheres were plated onto poly-L-ornithine/laminin-coated plates. The outward radial migration was measured using NeuronJ plugin on the Fiji platform. Next, these lead compounds were investigated for their ability to ameliorate CDD cellular phenotype. Following a similar pharmacological strategy, spheres were treated for 3 weeks, and cellular migration was evaluated after plating.

[2] = test system: Cdkl5 knockout mouse neurons; settings: cited from earlier work
[3] = 1112 compounds screened at 1 μM, chronic treatment for 3 weeks, 3-week-old CDD spheroids

| EC50 [1] | Structure (SMILES) | effect on cell viability (CDD spheroids) | SP ranking (Scalar Perturbation) [1, 3] | rescue of outward radial cellular migration defects in CDD (CDD spheres) | PR ranking (Parameter Recovery) ([1]; 1112 compounds screened at 1 μM, chronic treatment for 3 weeks, 3-week-old CDD spheroids, higher PR = closer to control) | restoration of CDKL5-dependent synaptic defects [2] |
| --- | --- | --- | --- | --- | --- | --- |
|  | N#Cc1ccc2[nH]c(O)c(-c3ccc(CN4CCOCC4)cn3)c2c1 [AZD1080] | no effect on cell viability | 12 | able to rescue outward radial cellular migration defects |  |  |
| 883 nM | C[C@H](NC(=O)CCC(F)(F)F)C(=O)N[C@@H]1C(=O)N(CCO)c2ncccc2-c2ccccc21 [Crenigacestat] | no effect on cell viability | 5 | able to rescue outward radial cellular migration defects |  |  |
|  | COc1ccc2c(c1)[nH]c1c(C)nccc12 [Harmine] | excluded from the list of top candidates due to its effect on cell survival | first |  | second | restore CDKL5-dependent synaptic defects |
| 41 nM | COc1cc2c(cc1OC)CC(=O)N(CCCN(C)C[C@H]1Cc3cc(OC)c(OC)cc31)CC2 [Ivabradine] | no effect on cell viability | 10 | able to rescue outward radial cellular migration defects |  |  |
|  | O=C(O[C@H]1CN2CCC1CC2)N1CCc2ccccc2[C@@H]1c1ccccc1 [Solifenacin] | no effect on cell viability | 28 | able to rescue outward radial cellular migration defects |  |  |
